Biological target: Human recombinant Histone Deacetylase 8 (HDAC8) (Homo sapiens (Human), UniProt Q9BY41)
Assay: HDAC8 Enzymatic Assay (HDAC-Glo I/II luminescence)
Format: biochemical
Conditions: class symbols, Table 14; read-out: HDAC8 IC50
How it was run: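 Human recombinant HDAC8 (1.5 nM final) preincubated with compound for 30 min, then reacted with 50 μM Boc-GAK(Ac)-aminoluciferin plus trypsin-containing developer for 15 min at room temperature, pH 8.0, 0.5% DMSO. Luminescence read-out; IC50 from percent control activity versus log concentration.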

Chain of Human recombinant Histone Deacetylase 8 (HDAC8) (Q9BY41 whole entry): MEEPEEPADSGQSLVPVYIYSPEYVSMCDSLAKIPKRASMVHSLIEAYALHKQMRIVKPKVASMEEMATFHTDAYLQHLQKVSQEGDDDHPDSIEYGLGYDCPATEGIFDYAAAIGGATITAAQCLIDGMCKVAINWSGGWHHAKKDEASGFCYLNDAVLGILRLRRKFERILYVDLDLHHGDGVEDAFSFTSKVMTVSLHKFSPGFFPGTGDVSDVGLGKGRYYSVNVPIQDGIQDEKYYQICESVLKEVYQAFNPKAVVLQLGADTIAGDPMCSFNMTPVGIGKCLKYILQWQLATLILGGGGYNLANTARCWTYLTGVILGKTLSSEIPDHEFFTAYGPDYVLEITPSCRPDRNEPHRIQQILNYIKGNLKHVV

SMILES | IC50
O=C(NO)C(Cc1ccccc1)n1cc2cc(Br)ncc2n1 (stereo not drawn) [Compound I-0100, 2-(5-bromo-2H-pyrazolo[3,4-c]pyridine-2-yl)-N-hydroxy-3-phenylpropanamide] | > 500 nM
Cc1cccc2cn(C(Cc3ccccc3)C(=O)NO)nc12 (stereo not drawn) [Compound I-0078, N-hydroxy-2-(7-methyl-2H-indazol-2-yl)-3-phenylpropanamide] | > 500 nM
O=C(NO)C(Cc1ccccc1)n1cc2c(-c3ccccc3)cccc2n1 (stereo not drawn) [Compound I-0060, N-hydroxy-3-phenyl-2-(4-phenyl-2H-indazol-2-yl)propanamide] | > 500 nM
CN1CCN(c2ccc(-c3ccn4c(C(Cc5ccccc5)C(=O)NO)cnc4c3)cc2)CC1 (stereo not drawn) [Compound I-0151, N-hydroxy-2-(7-(4-(4-methylpiperazin-1-yl)phenyl)imidazo[1,2-a]pyridin-3-yl)-3-phenylpropanamide] | > 500 nM
O=C(NO)C(Cc1ccccc1)n1ncc2c(-c3ccccc3)cccc21 (stereo not drawn) [Compound I-0079, N-hydroxy-3-phenyl-2-(4-phenyl-1H-indazol-1-yl)propanamide] | > 500 nM
O=C(NO)C(Cc1ccccc1)n1cc2cccc(CN3CCC(F)(F)CC3)c2n1 (stereo not drawn) [Compound I-0189, 2-(7-((4,4-difluoropiperidin-1-yl)methyl)-2H-indazol-2-yl)-N-hydroxy-3-phenylpropanamide] | 200 to 500 nM
Cc1ccc2c(cnn2C(Cc2ccccc2)C(=O)NO)n1 (stereo not drawn) [Compound I-0075, N-hydroxy-2-(5-methyl-1H-pyrazolo[4,3-b]pyridin-1-yl)-3-phenylpropanamide] | 200 to 500 nM
O=C(NO)C(Cc1ccccc1)c1cnc2c(-c3cccnc3)cccn12 (stereo not drawn) [Compound I-0163, N-hydroxy-3-phenyl-2-(8-(pyridin-3-yl)imidazo[1,2-a]pyridin-3-yl)propanamide] | > 500 nM
Cn1nccc1-c1ccc2c(cnn2C(Cc2ccccc2)C(=O)NO)n1 (stereo not drawn) [Compound I-0072, N-hydroxy-2-(5-(1-methyl-1H-pyrazol-5-yl)-1H-pyrazolo[4,3-b]pyridin-1-yl)-3-phenylpropanamide] | 200 to 500 nM
O=C(NO)C(Cc1ccccc1)n1ncc2ccc(-c3ccccc3)cc21 (stereo not drawn) [Compound I-0022, N-hydroxy-3-phenyl-2-(6-phenyl-1H-indazol-1-yl)propanamide] | > 500 nM
Cc1ccc2cn(C(Cc3ccccc3)C(=O)NO)nc2c1 (stereo not drawn) [Compound I-0040, N-hydroxy-2-(6-methyl-2H-indazol-2-yl)-3-phenylpropanamide] | > 500 nM
O=C(NO)C(Cc1ccccc1)n1ncc2ccc(-c3cnn(CCN4CCOCC4)c3)cc21 (stereo not drawn) [Compound I-0143, N-hydroxy-2-(6-(1-(2-morpholinoethyl)-1H-pyrazol-4-yl)-1H-indazol-1-yl)-3-phenylpropanamide] | > 500 nM

Further lines, results first:

IC50 | SMILES
200 to 500 nM | O=C(NO)C(Cc1ccccc1)n1ncc2c1CCCC2 (stereo not drawn) [Compound I-0201, N-hydroxy-3-phenyl-2-(4,5,6,7-tetrahydro-1H-indazol-1-yl)propanamide]
200 to 500 nM | COc1ncc(-c2cc3cnn(C(Cc4ccccc4)C(=O)NO)c3cn2)cn1 (stereo not drawn) [Compound I-0094, N-hydroxy-2-(5-(2-methoxypyrimidin-5-yl)-1H-pyrazolo[3,4-c]pyridin-1-yl)-3-phenylpropanamide]
200 to 500 nM | O=C(NO)C(Cc1ccccc1)n1cc2c(-c3ccncc3)cccc2n1 (stereo not drawn) [Compound I-0058, N-hydroxy-3-phenyl-2-(4-(pyridin-4-yl)-2H-indazol-2-yl)propanamide]
50 to 200 nM | O=C(NO)C(Cc1ccccc1)c1cnc2cc(-c3cncnc3)ccn12 (stereo not drawn) [Compound I-0112, N-hydroxy-3-phenyl-2-(7-(pyrimidin-5-yl)imidazo[1,2-a]pyridin-3-yl)propanamide]
50 to 200 nM | N/C(=N\O)c1cccc(-c2ccc3c(cnn3C(Cc3ccccc3)C(=O)NO)c2)c1 (stereo not drawn) [Compound I-0107, (Z)-N-hydroxy-2-(5-(3-(N′-hydroxy-carbamimid-oyl)phenyl)-1H-indazol-1-yl)-3-phenylpropanamide]
≤ 50 nM | NC(=O)c1ccc(-c2cccc3c(C#CC4CC4)n(C(Cc4ccccc4)C(=O)NO)nc23)cc1 (stereo not drawn) [Compound I-0138, 4-(3-(cyclopropylethynyl)-2-(1-(hydroxyamino)-1-oxo-3-phenylpropan-2-yl)-2H-indazol-7-yl)benzamide]
50 to 200 nM | O=C(NO)C(Cc1ccccc1)n1nc(C#CC2CC2)c2cc(Cl)ccc21 (stereo not drawn) [Compound I-0009, 2-(5-chloro-3-(cyclopropylethynyl)-1H-indazol-1-yl)-N-hydroxy-3-phenylpropanamide]
50 to 200 nM | Cn1nccc1-c1ccc2c(C(Cc3ccccc3)C(=O)NO)nn(C)c2c1 (stereo not drawn) [Compound I-0203, N-hydroxy-2-(1-methyl-6-(1-methyl-1H-pyrazol-5-yl)-1H-indazol-3-yl)-3-phenylpropanamide]
≤ 50 nM | CNC(=O)c1cccc(-c2cccc3c(C#CC4CC4)n(C(Cc4ccccc4)C(=O)NO)nc23)c1 (stereo not drawn) [Compound I-0158, 3-(3-(cyclopropylethynyl)-2-(1-(hydroxyamino)-1-oxo-3-phenylpropan-2-yl)-2H-indazol-7-yl)-N-methylbenzamide]
200 to 500 nM | Cn1nccc1-c1cnc2c(cnn2C(Cc2ccccc2)C(=O)NO)c1 (stereo not drawn) [Compound I-0119, N-hydroxy-2-(5-(1-methyl-1H-pyrazol-5-yl)-1H-pyrazolo[3,4-b]pyridin-1-yl)-3-phenylpropanamide]
50 to 200 nM | CN1CCN(c2ccc(-c3cccc4nn(C(Cc5ccccc5)C(=O)NO)cc34)cn2)CC1 (stereo not drawn) [Compound I-0149, N-hydroxy-2-(4-(6-(4-methylpiperazin-1-yl)pyridin-3-yl)-2H-indazol-2-yl)-3-phenylpropanamide]
≤ 50 nM | Cn1nccc1-c1ccc2nn(C(Cc3ccccc3)C(=O)NO)c(C#CC3CC3)c2c1 (stereo not drawn) [Compound I-0028, 2-(3-(cyclopropylethynyl)-5-(1-methyl-1H-pyrazol-5-yl)-2H-indazol-2-yl)-N-hydroxy-3-phenylpropanamide]
